In PubChem BioAssay AID328 (DTP/NCI, 2004):
Several values for one entry are separate records, joined by “and”; a condition that tells them apart may be missing. Identical values can stand only once. Inconclusive results and toxic doses are left out.

System: BDF1 mice, P388 leukemia ip, median survival T/C
Assay: NCI In Vivo Anticancer Drug Screen. Data for tumor model P388 Leukemia (intraperitoneal) in B6D2F1 (BDF1) mice
Settings: endpoint: median survival time, higher = longer survival
Protocol: The antitumor activity of compounds was measured in mice bearing transplantable tumors. Survival or tumor size were measured and the results are expressed as the measurement made in the treated group (T) divided by the measurement made in the vehicle treated control group (C). The tumor model used in this assay is P388 Leukemia (intraperitoneal) in B6D2F1 (BDF1) mice

[1] = dose: 12.5 mg/kg/injection, schedule: Q01DX009 (ip), vehicle: water
[2] = dose: 12.5 mg/kg/injection, schedule: Q04DX003 (ip), vehicle: water
[3] = dose: 25.0 mg/kg/injection, schedule: Q01DX009 (ip), vehicle: water
[4] = dose: 25.0 mg/kg/injection, schedule: Q04DX003 (ip), vehicle: water
[5] = dose: 50.0 mg/kg/injection, schedule: Q01DX009 (ip), vehicle: water
[6] = dose: 100.0 mg/kg/injection, schedule: Q01DX009 (ip), vehicle: water
[7] = dose: 200.0 mg/kg/injection, schedule: Q01DX009 (ip), vehicle: water
[8] = dose: 25.0 mg/kg/injection, schedule: Q04DX003 (ip), vehicle: saline
[9] = dose: 12.5 mg/kg/injection, schedule: Q01DX001 (ip), vehicle: saline with Tween-80
[10] = dose: 25.0 mg/kg/injection, schedule: Q01DX001 (ip), vehicle: saline with Tween-80
[11] = dose: 50.0 mg/kg/injection, schedule: Q01DX001 (ip), vehicle: saline with Tween-80
[12] = dose: 100.0 mg/kg/injection, schedule: Q01DX001 (ip), vehicle: saline with Tween-80
[13] = dose: 100.0 mg/kg/injection, schedule: Q04DX003 (ip), vehicle: saline with Tween-80
[14] = dose: 50.0 mg/kg/injection, schedule: Q01DX009 (ip), vehicle: saline with Tween-80
[15] = dose: 200.0 mg/kg/injection, schedule: Q01DX009 (ip), vehicle: saline with Tween-80
[16] = dose: 50.0 mg/kg/injection, schedule: Q04DX003 (ip), vehicle: saline with Tween-80
[17] = dose: 200.0 mg/kg/injection, schedule: Q04DX003 (ip), vehicle: saline with Tween-80
[18] = dose: 6.25 mg/kg/injection, schedule: Q01DX009 (ip), vehicle: saline
[19] = dose: 12.5 mg/kg/injection, schedule: Q01DX009 (ip), vehicle: saline
[20] = dose: 25.0 mg/kg/injection, schedule: Q01DX009 (ip), vehicle: saline
[21] = dose: 50.0 mg/kg/injection, schedule: Q01DX009 (ip), vehicle: saline

With `O=C(O)C1CCC2(CCCCC2)CC1` the T/C (dose: 6.25 mg/kg/injection, schedule: Q01DX009 (ip), vehicle: water) was 106 % of control, the T/C [1] was 100 % of control and the T/C [2] was 104 % of control. For the same molecule, the T/C [3] was 113 % of control and 117 % of control, the T/C [4] was 94 % of control and 106 % of control and 116 % of control and the T/C [5] was 99 % of control and 106 % of control. The T/C [6] was 94 % of control and 100 % of control and the T/C [7] was 88 % of control.
In the case of `CCN(CC)P(=O)(N1CC1)N1CC1`, the T/C (dose: 16.5 mg/kg/injection, schedule: Q04DX003 (ip), vehicle: saline) was 272 % of control and the T/C [8] was 90 % of control.
In the case of `S=C(Nc1ccccc1)NC1CCCCCC1`, the T/C (dose: 75.0 mg/kg/injection, schedule: Q04DX003 (ip), vehicle: Klucel (hydroxypropylcellulose) (HPC)) was 90 % of control, the T/C (dose: 150.0 mg/kg/injection, schedule: Q04DX003 (ip), vehicle: Klucel (hydroxypropylcellulose) (HPC)) was 100 % of control and the T/C (dose: 300.0 mg/kg/injection, schedule: Q04DX003 (ip), vehicle: Klucel (hydroxypropylcellulose) (HPC)) was 110 % of control.
`Cn1c(=O)c2nc(-c3ccc(Cl)c(Cl)c3)c(-c3ccc(Cl)c(Cl)c3)nc2n(C)c1=O` was tested, and the T/C (dose: 3.13 mg/kg/injection, schedule: Q01DX001 (ip), vehicle: saline with Tween-80) was 100 % of control, the T/C (dose: 6.25 mg/kg/injection, schedule: Q01DX001 (ip), vehicle: saline with Tween-80) was 101 % of control and the T/C [9] was 99 % of control. For the same molecule, the T/C [10] was 90 % of control and 101 % of control, the T/C [11] was 107 % of control and the T/C [12] was 87 % of control. The T/C (dose: 400.0 mg/kg/injection, schedule: Q01DX001 (ip), vehicle: saline with Tween-80) was 96 % of control.
In the case of `Nc1nc(N)c2nc(CNc3ccc(C(=O)NC(CC(=O)O)C(=O)O)cc3)cnc2n1` (stereo unspecified), the T/C (dose: 66.0 mg/kg/injection, schedule: Q04DX003 (ip), vehicle: saline with Tween-80) was 104 % of control and the T/C [13] was 100 % of control.
For `O=C1c2ccccc2C(=O)N1CNc1cccc(NCN2C(=O)c3ccccc3C2=O)c1`, the T/C (dose: 100.0 mg/kg/injection, schedule: Q01DX001 (ip), vehicle: saline) was 100 % of control, the T/C (dose: 100.0 mg/kg/injection, schedule: Q04DX003 (ip), vehicle: saline) was 104 % of control and the T/C (dose: 200.0 mg/kg/injection, schedule: Q01DX001 (ip), vehicle: saline) was 100 % of control. The T/C (dose: 200.0 mg/kg/injection, schedule: Q04DX003 (ip), vehicle: saline) was 104 % of control, the T/C (dose: 400.0 mg/kg/injection, schedule: Q01DX001 (ip), vehicle: saline) was 90 % of control and the T/C (dose: 400.0 mg/kg/injection, schedule: Q04DX003 (ip), vehicle: saline) was 100 % of control.
For `CC(C)Cc1c(N)nc(=O)[nH]c1C(=O)O`, the T/C (dose: 50.0 mg/kg/injection, schedule: Q04DX003 (ip), vehicle: Klucel (hydroxypropylcellulose) (HPC)) was 109 % of control, the T/C (dose: 100.0 mg/kg/injection, schedule: Q04DX003 (ip), vehicle: Klucel (hydroxypropylcellulose) (HPC)) was 95 % of control and the T/C (dose: 200.0 mg/kg/injection, schedule: Q04DX003 (ip), vehicle: Klucel (hydroxypropylcellulose) (HPC)) was 100 % of control.
In the case of `c1cc(NC2CCCCC2)ccc1CN1CCOCC1`, the T/C (dose: 50.0 mg/kg/injection, schedule: Q01DX009 (ip), vehicle: other) was 102 % of control and 109 % of control and the T/C (dose: 100.0 mg/kg/injection, schedule: Q01DX009 (ip), vehicle: other) was 116 % of control.
For `CCc1nc2ccccc2c(=O)n1C`, the T/C [14] was 101 % of control and the T/C [15] was 101 % of control.
With `CCCCCC(C)C(=O)CCCC` (stereo unspecified) (tested in a mixture with another compound) the T/C [16] was 104 % of control, the T/C [13] was 104 % of control and the T/C [17] was 100 % of control.
With `Cc1oc(-c2ccccc2)nc1C(=O)O` the T/C [13] was 106 % of control, the T/C [17] was 100 % of control and the T/C (dose: 400.0 mg/kg/injection, schedule: Q04DX003 (ip), vehicle: saline with Tween-80) was 102 % of control.
With `CCOC(=O)C(Br)C(=O)OCC` the T/C [18] was 100 % of control, the T/C [19] was 100 % of control and the T/C (dose: 12.5 mg/kg/injection, schedule: Q04DX003 (ip), vehicle: saline) was 110 % of control. The T/C [20] was 95 % of control, the T/C [8] was 110 % of control and the T/C [21] was 86 % of control. The T/C (dose: 50.0 mg/kg/injection, schedule: Q04DX003 (ip), vehicle: saline) was 105 % of control.
With `O=C1C(N2CCCC2)=C(N2CC2)C(=O)C(N2CCCC2)=C1N1CC1` the T/C (dose: 0.25 mg/kg/injection, schedule: Q01DX009 (ip), vehicle: saline) was 172 % of control.
`C1CC2CCC[N]3C2C(C1)[O][Pb]31[O]C2CCCC3CCC[N]1C32` (stereo unspecified) was tested, and the T/C (dose: 133.0 mg/kg/injection, schedule: Q04DX003 (ip), vehicle: saline with Tween-80) was 96 % of control and 100 % of control, the T/C [17] was 100 % of control and 104 % of control and the T/C (dose: 300.0 mg/kg/injection, schedule: Q04DX003 (ip), vehicle: saline with Tween-80) was 95 % of control and 104 % of control.
For `CC[N-]c1nnnn1CC.[Au+].c1ccc([PH+](c2ccccc2)c2ccccc2)cc1`, the T/C [9] was 100 % of control and the T/C [10] was 111 % of control.
In the case of `CCC(C)C(NS(=O)(=O)c1ccc(C)cc1)C(=O)O` (stereo unspecified), the T/C (dose: 50.0 mg/kg/injection, schedule: Q01DX005 (ip), vehicle: saline with Tween-80) was 96 % of control, the T/C (dose: 100.0 mg/kg/injection, schedule: Q01DX005 (ip), vehicle: saline with Tween-80) was 102 % of control and the T/C (dose: 200.0 mg/kg/injection, schedule: Q01DX005 (ip), vehicle: saline with Tween-80) was 112 % of control.
With `Nc1nc(CNc2ccc(Cl)cc2)nc(Nc2cccc(Cl)c2)n1` the T/C (dose: 100.0 mg/kg/injection, schedule: Q01DX001 (ip), vehicle: saline sonified) was 100 % of control, the T/C (dose: 200.0 mg/kg/injection, schedule: Q01DX001 (ip), vehicle: saline sonified) was 105 % of control and the T/C (dose: 400.0 mg/kg/injection, schedule: Q01DX001 (ip), vehicle: saline sonified) was 100 % of control.
In the case of `CC1NCCNCCNCCNC(C)c2cccc1n2` (stereo unspecified), the T/C [18] was 118 % of control, the T/C [19] was 106 % of control and the T/C [20] was 118 % of control.
For `C=CS(=O)(=O)Cc1ccccc1`, the T/C (dose: 25.0 mg/kg/injection, schedule: Q04DX003 (ip), vehicle: saline with Tween-80) was 104 % of control and the T/C [16] was 93 % of control.
With `CCOC(=O)Nc1nc(NC(=O)OCC)c(Cl)nc1Cl` the T/C [1] was 113 % of control, the T/C [2] was 90 % of control and 104 % of control and the T/C [3] was 99 % of control. The T/C [4] was 92 % of control and 104 % of control, the T/C [5] was 111 % of control and the T/C (dose: 50.0 mg/kg/injection, schedule: Q04DX003 (ip), vehicle: water) was 102 % of control. The T/C [6] was 99 % of control, the T/C (dose: 100.0 mg/kg/injection, schedule: Q04DX003 (ip), vehicle: water) was 100 % of control and 101 % of control and the T/C [7] was 90 % of control. For the same molecule, the T/C (dose: 200.0 mg/kg/injection, schedule: Q04DX003 (ip), vehicle: water) was 94 % of control and 96 % of control, the T/C (dose: 400.0 mg/kg/injection, schedule: Q01DX009 (ip), vehicle: water) was 101 % of control and the T/C (dose: 400.0 mg/kg/injection, schedule: Q04DX003 (ip), vehicle: water) was 112 % of control. The T/C (dose: 500.0 mg/kg/injection, schedule: Q04DX003 (ip), vehicle: water) was 96 % of control.
In the case of `CCN(CC)CCCC(C)Nc1cc(C)nc2cc(N(C)C)ccc12` (stereo unspecified), the T/C (dose: 6.25 mg/kg/injection, schedule: Q01DX009 (ip), vehicle: Klucel (hydroxypropylcellulose) (HPC)) was 117 % of control and the T/C (dose: 12.5 mg/kg/injection, schedule: Q01DX009 (ip), vehicle: Klucel (hydroxypropylcellulose) (HPC)) was 108 % of control.
In the case of `CCOC(=O)Nc1cc(NCC(=O)c2ccc(C(F)(F)F)cc2)c([N+](=O)[O-])c(N)n1`, the T/C [11] was 94 % of control, the T/C [12] was 105 % of control and the T/C (dose: 200.0 mg/kg/injection, schedule: Q01DX001 (ip), vehicle: saline with Tween-80) was 105 % of control.
In the case of `CCOC(=O)c1ccccn1`, the T/C [19] was 108 % of control, the T/C (dose: 25.0 mg/kg/injection, schedule: Q01DX009 (ip), vehicle: saline with Tween-80) was 112 % of control and the T/C [20] was 105 % of control. For the same molecule, the T/C [14] was 121 % of control, the T/C [21] was 94 % of control and the T/C (dose: 100.0 mg/kg/injection, schedule: Q01DX009 (ip), vehicle: saline with Tween-80) was 105 % of control. The T/C (dose: 100.0 mg/kg/injection, schedule: Q01DX009 (ip), vehicle: saline) was 103 % of control and the T/C [15] was 110 % of control.
